Source: PMC13369845 (Oncogenesis, 2026)
Where no end group is shown, it is not given here.

Key:
[1] = tested on: Vemurafenib-resistant A375 cells; assay: Cell viability (CCK-8) of Vemurafenib-resistant A375 cells; type: cell-based, human
Procedure: Viability was determined using the CCK-8 reagent (APExBIO-K1018). Absorbance was measured at 450 nm using a Varioskan LUX reader.
Vemurafenib-resistant A375 cells were generated following established protocol. Parental cells were treated with 100 nM Vemurafenib (SelleckChem #S1267) for 2 weeks, followed by stepwise doubling of drug concentration every 2 weeks up to 3.2 µM. Surviving cells in maintenance culture containing 2 µM drug were used for downstream studies.

[2] = In vitro plasma stability; type: in vitro ADME, mouse (C57BL/6); conditions: LC-MS/MS
Procedure: Each aliquot (50 µl) was mixed with 150 µl methanol, vortexed, spun, removed the supernatant and reconstituted the pellet with 150 µl 10% formic acid in water. The sample was vortexed and spun, and a 100 µl aliquot was taken, diluted 1:1 with 10 mM ammonium bicarbonate, and analyzed by LC-MS/MS. Using the remaining vs. time dataset, we performed a first-order decay analysis by fitting a linear regression to the natural log-transformed percent remaining values (excluding 0% and t = 0 anchor point) to plot the graph.

[3] = In vivo plasma pharmacokinetics; design: species or system mouse (C57BL/6); conditions: male C57BL/6 mouse, 5 mg/kg intraperitoneal, LC-MS/MS
Procedure: Blood samples (100 µl) were obtained at 0, 0.25, 0.5, 1, 2, 4, 8, and 24 h via tail vein bleeds.

[4] = tested on: B16F10-derived tumors in C57BL/6 mice; assay: B16F10 melanoma mouse tumor model; type: in vivo; conditions: CST 10 mg/kg intraperitoneally, three times per week
Procedure: Age-matched male and female C57BL/6 mice (7–9 weeks, n = 9) were subcutaneously injected with 5 × 10⁴ B16-F10 cells in 100 µL PBS. […] Tumor dimensions were measured with calipers, and volume was calculated using the formula V = (length × width²)/2. Mice were euthanized 22 days post-inoculation by inhalational isoflurane, that follow the institutional IACUC protocol and AVMA guideline for Euthanasia of animals (2020). […] Animals were continuously monitored till the loss of righting reflex and response to toe pinch was absent, thus confirming a surgical plane of anesthesia. Tissues were collected when the animals went into deep anesthesia and euthanasia was finally completely by exsanguination. […]
Fixed tumors were paraffin-embedded and sectioned (5 µm). […] The area fraction was calculated as the percentage of pixels that exceeded the threshold within the defined region of interest (ROI). Quantification was performed using Fiji (ImageJ), which computes the area fraction as the ratio of the threshold-positive area to the total ROI area, expressed as a percentage.
Apoptotic nuclei were detected in tumor sections using the CF®594 TUNEL Assay Kit (Biotium #30064). […] Fluorescence images were obtained using a Keyence microscope.
For tissue lysates from wild-type and CST-knockout (CST-KO) mice, 10 µg of total protein was analyzed by immunoblotting using an anti-CST antibody. […]

Q: With CCCS(=O)(=O)Nc1ccc(F)c(C(=O)c2c[nH]c3ncc(-c4ccc(Cl)cc4)cc23)c1F [Vemurafenib] as the compound, how does the “cell viability of A375 resistant cells, single agents and combination” value ([1]; Vemurafenib 2 µM, CST 2 µM, alone or combined, after 48 h) read?
A: little effect on cell viability

Q: And the “IC50 of resistant cells relative to parental cells” value ([1]; Vemurafenib-resistant vs parental A375)?
A: > 6 fold

Q: Which intact material remaining ([2]; in vitro mouse plasma, 5 µg CST/ml, at ~5.6 h) does the source give for SSMKLSFRARAYGFRGPGPQL [CST, Catestatin] here?
A: ~ 50%

Q: And the “apparent first-order rate constant k” value ([2]; in vitro, C57BL/6 mouse plasma spiked with 5 µg CST/ml, aliquots over 24 h, linear regression of ln(% remaining) vs time, R^2 = 0.971)?
A: 0.1246 h⁻¹

Q: And the Cmax ([3]; ip, plasma from tail vein bleeds 0-24 h, read-out: Cmax (maximum concentration))?
A: 160 ng/mL

Q: And the “Tmax (time to reach Cmax)” value ([3]; plasma)?
A: 15 min

Q: What about the “t1/2 (half-life) in vivo” value ([3]; plasma) of the same compound?
A: 89.4 min

Q: And the “body weight and liver histology” value [4]?
A: No major changes in body weight or liver histology
